Assay results from patent US20050272682A1, “SiRNA targeting PI3K signal transduction pathway and siRNA-based therapy” (priority 2004, published 2005).

Columns and labels:
DSS-induced colitis mice [1] = test: DSS-induced colitis in mice, wortmannin by oral gavage; format: in vivo; conditions: DSS 5% 7 days, wortmannin 1.5 mg/kg oral gavage daily from day 2; day 7; DSS alone mean DAI 4; scale 0 to 4
Method: (§1) 60 male C57/bl6 mice aged 8 weeks and weighed around 20 g were administered with 5% (w/v) dextran sulfate sodium (DSS) in drinking water for 7 days. DSS used was 5000 MW sulfated polysaccharide (Sigma Chemical Co., St. Louis, Mo.). It is believed that DSS has direct cytotoxic effects on epithelial cells, immune cell function interference, and luminal microflora. DSS-induced inflammatory bowel disease (IBD) was characterized by epithelial damage, mucosal inflammatory infiltrates, and luminal ulceration similar to ulcerative colitis (see FIG. 1, panels A and B).
A validated clinical disease activity index (DAI) (Murano, et al., 2000; Murthy, et al., 1993) ranging from a score of 0 to 4 was calculated by an investigator blinded to the protocol using the following parameters: stool consistency, presence of fecal blood, and changes in body weight (Murano, et al., 2000). The stool consistency was assessed using the following four point scale: 0, normal; 1, soft; 2, very soft but formed; and 3, liquid. The intensity of the hemoccult paper test was scored by the following scale: 0, negative; 1, faintly blue; 2, moderately blue; 3, dark blue; and 4, blood visible. […]
Histology sections of large intestine were stained with H&E to evaluate degree of inflammatory changes in the mice before and after the wortmannin treatment. Neutrophil sequestration was assessed through MPO assay. […]

KM20 cells = test: DNA fragmentation assay (Cell Death Detection ELISA), KM20 cells; format: cell-based, human; conditions: TRAIL 100 ng/mL
Method: (§2) Cells were transfected with pik3r1, Akt1 or scrambled siRNA. After 48 h, adherent cells were detached by rapid trypsinization, counted in a Hausser chamber and seeded at a density of 2×10^3 cells per well in 96-well flat-bottom microtiter plates and incubated in 250 μl of growth medium for 24 h at 37° C. Media were removed and either new complete media or TRAIL (100 ng/mL) was added in a final volume of 200 μL and allowed to grow for 24 h at 37° C. After treatment, DNA fragmentation was evaluated by examination of cytoplasmic histone-associated DNA fragments (mono- and oligonucleosomes) using a Cell Death Detection ELISA^Plus kit (Roche Molecular Biochemicals) according to the manufacturer's instructions and as previously described (Wang. et al., 2002). The experiments were repeated on at least 3 separate occasions.

PI3K/Akt pathway = test: Western blot of colon from mice given DSS and intrarectal siRNA; format: in vivo
Method: (§3) Inflammatory bowel disease (IBD) was induced in 2-month-old C57/bl6 mice using a 5% dextran sulfate sodium (DSS) solution in drinking water. siRNA directed to either p85α or Akt1 or siCONTROL was given on days 2, 3 and 4 of DSS exposure. Due to the short half-life of siRNA in vivo, siSTABLE was used which renders siRNA more resistant to degradation resulting in a half-life of 5 days. For each mouse, 5 μg of siRNA in 25 μl of transfection buffer was transferred into a sterile Eppendorf tube. In a separate sterile polystyrene tube 20 μg of DOTAP was mixed with 70 μl transfection buffer and then the siRNA mixture was transferred to the polystyrene tube containing the DOTAP and then incubated at room temperature for 30 min. Around 100 μl of the mixture was administered via the anus, by slow instillation into the lumen of the colon using a 20-gauge catheter and a 1-ml syringe. After treatment, mice were suspended head down for 30 sec. The colonic enema was performed on the second day of DSS exposure and repeated 24 and 48 h later. Cy-3 labeled siRNA were prepared for the treatment and administered as described above; mice were sacrificed at 4 and 24 hours after treatment and spleen, liver, pancreas and colon samples organs were taken and then frozen in liquid N2. Sections (6 μm) were cut with a cryostat microtome, thaw-mounted on a glass slide (cleaned with ethanol) and analyzed by fluorescent light microscopy (excitation λ=570 ηm).
Western immunoblot analyses were performed as described previously (Wang, et al., 2002). Individual colon samples were homogenized using a Polytron power homogenizer in cell lysis buffer at 4° C. for 30 min. Lysates were clarified by centrifugation (8,000 g for 20 min at 4° C.), and sonicated for 30-45 sec on ice. Protein concentrations were determined using the method of Bradford (1976). Total protein (100 μg) was resolved on a 10% polyacrylamide gel and transferred to Immobilon-P […] membranes as described previously (Wang, et al., 2002). Filters were incubated overnight at 4° C. in blocking solution followed by a 1-h incubation with primary antibodies. Filters were washed three times in blocking solution and incubated with horseradish peroxidase-conjugated secondary antibody for 1 h. After three additional washes, the immune complexes were visualized by enhanced chemiluminescence (ECL) from Amersham (Arlington Heights, Ill.).

DSS-induced colitis mice [2] = test: DSS-induced colitis in mice, intrarectal siRNA; format: in vivo
Method: as §1
A validated clinical disease activity index (DAI) (Murano, et al., 2000; Murthy, et al., 1993) ranging from a score of 0 to 4 was calculated by an investigator blinded to the protocol using the following parameters: stool consistency, presence of fecal blood, and changes in body weight (Murano, et al., 2000). The stool consistency was assessed using the following four point scale: 0, normal; 1, soft; 2, very soft but formed; and 3, liquid. The intensity of the hemoccult paper test was scored by the following scale: 0, negative; 1, faintly blue; 2, moderately blue; 3, dark blue; and 4, blood visible.
as §3
Neutrophil sequestration was measured by MPO activity determination using the O-dianisidine method as previously described (Barone, et al., 1991). Whole tissue protein (100 μg) extract was used to measure the MPO activity. Activity was expressed as the amount of enzyme necessary to generate a change in absorbance of 1.0 per min per mg wet weight of tissue.
Tissue protein (100 μg) was placed in 96-well plates. Expression of IL-1β and IL-6, TNFα, and p65 NF-κB protein in whole tissue lysates was determined using anti-mouse cytokine ELISA kits from Pierce Biotechnology, Inc. (Rockford, Ill.) as previously described (Slogoff, et al., 2004). Cytokine expression of MIP-2 was determined with an anti-mouse MIP-2 ELISA purchased from Assay Designs, Inc. (Ann Arbor, Mich.). Each ELISA was performed according to the manufacturer's instructions.
Excised colons were evaluated for approximate length, for blood content, stool consistency, and general appearance of bowel wall. Histological examination was performed on three samples of the colon from each animal. The samples were fixed in 10% buffered formalin, dehydrated in ethanol, and then embedded in paraffin. Sections (4 μm) were then prepared and stained with hematoxylin and eosin.

[3] = system: severe acute pancreatitis mice; test: CMDE diet model of severe acute pancreatitis in mice; format: in vivo
Method: Choline and methionine deficient with ethionine (CMDE) was used to generate pancreatitis model in mice. Female Swiss-Webster mice were divided into two groups: control siRNA or p85α siRNA treatment group. Mice were injected with 10 μg control or p85α siRNA 3 days before and 1 day after starting experiment using hydrodynamic tail vein method. Mice were fed CMDE diet for 3 days. Ethionine (250 mg/kg, twice a day) was fed via gavage. After being fed with CMDE diet for 3 days, mice were fed with regular lab food. The mortality for 7 days was assessed in both groups.

KM12C cells = test: DNA fragmentation assay (Cell Death Detection ELISA), KM12C cells; format: cell-based, human; conditions: TRAIL 100 ng/mL
Method: as §2

[4] = DSS, after day 3, values near control levels by day 7
[5] = colon, compared to DSS+control siRNA

Molecule: COC[C@H]1OC(=O)c2coc3c2[C@@]1(C)C1=C(C3=O)[C@@H]2CCC(=O)[C@@]2(C)C[C@H]1OC(C)=O [wortmannin, Wortmannin]
- mean DAI score (DSS-induced colitis mice [1]): 2

Molecule: Z-DEVD-fmk [reference compound]
- induction of apoptosis mediated by the combination of TRAIL and pik3r1 or Akt1 siRNA (KM20 cells; KM20 cells pretreated with the caspase-3 inhibitor): completely blocked

Molecule: p85α siRNA: siSTABLE siRNA duplex to Mus musculus p85α mRNA; sense gcagcaaccgaaacaaagcuu (SEQ ID NO:2), antisense gcuuuguuucgguugcugcuu (SEQ ID NO:3) (sense GCAGCAACCGAAACAAAGCUU; antisense GCUUUGUUUCGGUUGCUGCUU; siSTABLE chemically modified siRNA, pattern not given here)
- Akt expression in colon (PI3K/Akt pathway): not altered
- p110δ expression in colon (PI3K/Akt pathway): not altered
- p85α expression in colon (PI3K/Akt pathway; normal and DSS-treated colon): decreased
- pAkt expression in colon (PI3K/Akt pathway; untreated and DSS-treated colon): decreased
- gross changes in the colon associated with DSS treatment (shortening, intraluminal hemorrhage, necrosis) (DSS-induced colitis mice [2]; 5 μg siRNA with DOTAP intrarectally on days 2, 3 and 4 of DSS): abrogated
- preventing the bowel shortening, mucosal wall thinning and blood in the colon (comparison of the two siRNA) (DSS-induced colitis mice [2]; DSS, intrarectal siRNA): more effective than siRNA to Akt1
- disease activity index (DAI), course (DSS-induced colitis mice [2]; [4]): stabilized and then improved
- weight loss, course (DSS-induced colitis mice [2]; [4]): stabilized and then improved
- cytokine tissue levels (IL-1β, IL-6, MIP-2, TNFα) (DSS-induced colitis mice [2]; [5]): significantly attenuated
- neutrophil sequestration (MPO activity) (DSS-induced colitis mice [2]; [5]): significantly attenuated
- p65 NF-κB activity (DSS-induced colitis mice [2]; [5]): significantly attenuated
- leukocyte infiltration and mucosal damage (colonic histology) (DSS-induced colitis mice [2]; compared with DSS and control siRNA): decreased
- edema and bleeding in pancreas ([3]; 10 μg siRNA by hydrodynamic tail vein 3 days before and 1 day after start): no edema and bleeding
- mice died (mortality) ([3]; after 7 days): 30%

B1: TNF-related apoptosis-inducing ligand (protein, UniProt P50591 1-281, looked up)
Tumor necrosis factor ligand …: MAMMEVQGGPSLGQTCVLIVIFTVLLQSLCVAVTYVYFTNELKQMQDKYSKSGIACFLKEDDSYWDPNDEESMNSPCWQVKWQLRQLVRKMILRTSEETISTVQEKQQNISPLVRERGPQRVAAHITGTRGRSNTLSSPNSKNEKALGRKINSWESSRSGHSFLSNLHLRNGELVIHEKGFYYIYSQTYFRFQEEIKENTKNDKQMVQYIYKYTSYPDPILLMKSARNSCWSKDAEYGLYSIYQGGIFELKENDRIFVSVTNEHLIDMDHEASFFGAFLVG
notes: apoptosis-inducing agent
- effect of TRAIL alone on cell growth (KM20 cells; KM20 cells): no effect
- effect of TRAIL alone on cell growth (KM12C cells): no effect
